ChEMBL document CHEMBL5465560, “Selectivity Literature for EUbOPEN Chemogenomic Library” (2024)
One block for each compound: values may come before it.

How the values were obtained:
[1] = target: Ribosomal protein S6 kinase alpha-6 (Homo sapiens, UniProt Q9UK32); test: Selectivity interaction (KinomeScan (DiscoverX)) EUB0001049a RPS6KA6; conditions: at 1 µM
[2] = target: RAC-alpha serine/threonine-protein kinase (Homo sapiens, UniProt P31749); test: Selectivity interaction (Ambit KINOMEscan and KiNATiv profiling in Jurkat cells) EUB0000090b AKT1; assay type: cell-based; conditions: at 1 µM
[3] = target: Tyrosine-protein kinase Fyn (Homo sapiens) (UniProt P06241); test: Selectivity interaction (Kinase panel (Z-LYTE Assay)) EUB0001632a FYN; conditions: at 10 µM
[4] = system: Fibroblast growth factor receptor 3 (Homo sapiens), P22607 [G697C]; test: (§1) Selectivity interaction (KinomeScan (DiscoverX)) EUB0000595a FGFR3; conditions: at 10 µM
[5] = target: Fibroblast growth factor receptor 3 (Homo sapiens, UniProt P22607); test: as §1; conditions: at 10 µM
[6] = target: T1, Rhodopsin kinase GRK1 (Homo sapiens) (UniProt Q15835); test: Selectivity interaction (KinomeScan (DiscoverX)) EUB0001079a GRK1; conditions: at 1 µM
T1 sequence (whole entry): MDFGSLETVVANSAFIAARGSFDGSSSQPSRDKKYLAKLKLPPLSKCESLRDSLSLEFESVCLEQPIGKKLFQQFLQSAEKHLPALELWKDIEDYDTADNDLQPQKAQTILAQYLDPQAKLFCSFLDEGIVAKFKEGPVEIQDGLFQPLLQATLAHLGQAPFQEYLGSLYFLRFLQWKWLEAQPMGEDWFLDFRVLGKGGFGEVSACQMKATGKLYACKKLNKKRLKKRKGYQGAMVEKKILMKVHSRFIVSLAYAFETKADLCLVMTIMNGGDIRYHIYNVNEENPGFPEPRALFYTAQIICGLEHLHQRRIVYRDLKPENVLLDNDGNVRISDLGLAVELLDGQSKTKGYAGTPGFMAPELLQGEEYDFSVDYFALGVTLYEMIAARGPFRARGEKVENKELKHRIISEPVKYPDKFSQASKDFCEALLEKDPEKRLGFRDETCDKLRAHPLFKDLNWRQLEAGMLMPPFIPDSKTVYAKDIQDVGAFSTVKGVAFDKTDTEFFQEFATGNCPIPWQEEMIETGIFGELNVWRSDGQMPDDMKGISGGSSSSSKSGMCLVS

[7] = target: Interleukin-1 receptor-associated kinase 1 (Homo sapiens) (UniProt P51617); test: Selectivity interaction (KinomeScan (DiscoverX)) EUB0000092b IRAK1; conditions: at 10 µM
[8] = target: T2, Ephrin type-B receptor 1 (Homo sapiens) (UniProt P54762); test: Selectivity interaction (KinomeScan (DiscoverX)) EUB0000092b EPHB1; conditions: at 10 µM
T2 sequence (whole entry): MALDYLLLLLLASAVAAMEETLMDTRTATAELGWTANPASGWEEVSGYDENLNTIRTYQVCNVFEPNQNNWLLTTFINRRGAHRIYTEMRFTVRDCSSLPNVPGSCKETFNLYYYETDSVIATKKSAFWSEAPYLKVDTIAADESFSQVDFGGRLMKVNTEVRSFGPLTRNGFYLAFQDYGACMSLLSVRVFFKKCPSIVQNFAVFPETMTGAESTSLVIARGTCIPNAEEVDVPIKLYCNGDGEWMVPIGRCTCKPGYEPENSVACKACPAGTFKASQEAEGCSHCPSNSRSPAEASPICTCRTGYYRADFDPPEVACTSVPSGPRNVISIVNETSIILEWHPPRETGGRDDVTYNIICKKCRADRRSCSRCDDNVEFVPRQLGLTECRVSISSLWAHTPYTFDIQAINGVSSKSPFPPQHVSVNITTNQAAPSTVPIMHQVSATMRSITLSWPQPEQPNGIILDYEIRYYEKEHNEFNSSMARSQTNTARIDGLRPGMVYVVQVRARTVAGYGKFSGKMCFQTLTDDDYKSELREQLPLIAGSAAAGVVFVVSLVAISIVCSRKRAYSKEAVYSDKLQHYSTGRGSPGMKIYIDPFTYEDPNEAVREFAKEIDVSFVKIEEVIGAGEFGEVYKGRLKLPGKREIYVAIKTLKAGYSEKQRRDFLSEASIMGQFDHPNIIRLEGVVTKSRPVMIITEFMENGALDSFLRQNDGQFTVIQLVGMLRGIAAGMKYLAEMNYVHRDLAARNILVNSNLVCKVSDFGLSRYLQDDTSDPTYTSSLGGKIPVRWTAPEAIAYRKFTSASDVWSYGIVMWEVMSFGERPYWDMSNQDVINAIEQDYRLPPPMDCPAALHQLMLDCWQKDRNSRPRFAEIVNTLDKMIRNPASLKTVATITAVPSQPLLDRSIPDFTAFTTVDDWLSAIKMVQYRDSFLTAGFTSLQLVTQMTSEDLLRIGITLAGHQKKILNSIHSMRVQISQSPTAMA

[9] = target: T3, Phosphatidylinositol 4,5-bisphosphate 3-kinase catalytic subunit delta isoform (Homo sapiens) (UniProt O00329); test: Selectivity interaction (KinomeScan (DiscoverX)) EUB0000607a PIK3CD; conditions: at 10 µM
T3 sequence (whole entry): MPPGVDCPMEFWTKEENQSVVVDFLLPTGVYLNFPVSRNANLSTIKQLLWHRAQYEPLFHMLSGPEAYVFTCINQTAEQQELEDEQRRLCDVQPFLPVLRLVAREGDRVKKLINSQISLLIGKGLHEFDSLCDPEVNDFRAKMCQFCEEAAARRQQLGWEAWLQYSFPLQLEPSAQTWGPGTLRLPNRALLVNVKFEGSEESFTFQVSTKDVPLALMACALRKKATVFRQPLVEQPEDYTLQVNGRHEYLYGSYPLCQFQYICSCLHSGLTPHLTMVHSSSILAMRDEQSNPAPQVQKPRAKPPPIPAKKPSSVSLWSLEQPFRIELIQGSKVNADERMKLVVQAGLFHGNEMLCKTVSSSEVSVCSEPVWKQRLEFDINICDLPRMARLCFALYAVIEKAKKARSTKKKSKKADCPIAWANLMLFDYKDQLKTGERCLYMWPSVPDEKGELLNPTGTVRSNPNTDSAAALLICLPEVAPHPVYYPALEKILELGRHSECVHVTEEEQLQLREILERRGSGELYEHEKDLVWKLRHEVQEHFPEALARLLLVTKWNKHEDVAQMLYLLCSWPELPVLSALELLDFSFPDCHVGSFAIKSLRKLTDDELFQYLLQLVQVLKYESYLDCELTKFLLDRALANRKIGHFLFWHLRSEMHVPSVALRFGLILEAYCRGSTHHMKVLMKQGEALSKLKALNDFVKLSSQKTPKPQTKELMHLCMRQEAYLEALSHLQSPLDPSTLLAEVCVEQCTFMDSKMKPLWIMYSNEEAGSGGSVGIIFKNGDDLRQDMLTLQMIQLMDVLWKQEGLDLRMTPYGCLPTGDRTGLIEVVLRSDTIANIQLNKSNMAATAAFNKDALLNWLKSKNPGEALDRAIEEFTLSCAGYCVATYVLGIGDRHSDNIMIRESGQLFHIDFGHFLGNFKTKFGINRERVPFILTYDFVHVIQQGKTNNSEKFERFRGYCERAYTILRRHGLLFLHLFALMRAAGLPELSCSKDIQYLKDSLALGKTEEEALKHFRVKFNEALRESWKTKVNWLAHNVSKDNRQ

Sequence of Tyrosine-protein kinase Fyn (Homo sapiens) (P06241 2-537 limits assumed): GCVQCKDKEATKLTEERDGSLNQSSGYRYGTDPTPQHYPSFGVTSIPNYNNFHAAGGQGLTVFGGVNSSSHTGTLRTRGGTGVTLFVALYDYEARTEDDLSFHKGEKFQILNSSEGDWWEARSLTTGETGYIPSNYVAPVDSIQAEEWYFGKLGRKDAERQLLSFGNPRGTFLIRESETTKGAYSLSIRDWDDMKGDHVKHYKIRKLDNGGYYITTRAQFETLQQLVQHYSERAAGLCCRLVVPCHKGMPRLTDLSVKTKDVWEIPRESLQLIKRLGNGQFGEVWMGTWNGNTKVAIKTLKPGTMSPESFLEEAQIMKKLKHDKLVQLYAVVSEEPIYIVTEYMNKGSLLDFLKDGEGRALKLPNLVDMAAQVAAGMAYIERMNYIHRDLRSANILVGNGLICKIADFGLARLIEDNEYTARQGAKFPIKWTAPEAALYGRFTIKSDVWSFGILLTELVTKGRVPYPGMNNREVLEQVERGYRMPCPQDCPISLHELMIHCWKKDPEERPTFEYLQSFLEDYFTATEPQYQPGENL
Sequence of Fibroblast growth factor receptor 3 (P22607 23-806 limits assumed): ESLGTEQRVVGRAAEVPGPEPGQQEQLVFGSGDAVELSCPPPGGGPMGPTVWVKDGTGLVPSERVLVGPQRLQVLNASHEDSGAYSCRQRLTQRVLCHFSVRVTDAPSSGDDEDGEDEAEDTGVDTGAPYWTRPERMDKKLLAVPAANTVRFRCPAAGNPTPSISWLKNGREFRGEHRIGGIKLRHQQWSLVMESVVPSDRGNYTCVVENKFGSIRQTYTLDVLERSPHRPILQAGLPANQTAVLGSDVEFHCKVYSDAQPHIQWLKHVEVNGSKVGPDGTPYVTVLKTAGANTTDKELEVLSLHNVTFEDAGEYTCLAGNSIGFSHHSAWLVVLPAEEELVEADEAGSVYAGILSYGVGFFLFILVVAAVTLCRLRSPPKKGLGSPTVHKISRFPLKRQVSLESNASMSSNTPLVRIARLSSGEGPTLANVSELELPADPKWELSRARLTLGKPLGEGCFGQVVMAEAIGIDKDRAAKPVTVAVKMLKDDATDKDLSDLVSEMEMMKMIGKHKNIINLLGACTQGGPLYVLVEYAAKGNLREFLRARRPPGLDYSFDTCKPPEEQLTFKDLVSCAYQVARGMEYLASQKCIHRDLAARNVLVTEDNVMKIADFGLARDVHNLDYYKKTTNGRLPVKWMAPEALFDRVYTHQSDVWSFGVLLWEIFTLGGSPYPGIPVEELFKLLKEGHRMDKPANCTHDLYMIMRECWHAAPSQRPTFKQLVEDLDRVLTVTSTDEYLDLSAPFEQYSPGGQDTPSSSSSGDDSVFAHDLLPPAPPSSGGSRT
Sequence of Interleukin-1 receptor-associated kinase 1 (Homo sapiens) (P51617 whole entry, looked up): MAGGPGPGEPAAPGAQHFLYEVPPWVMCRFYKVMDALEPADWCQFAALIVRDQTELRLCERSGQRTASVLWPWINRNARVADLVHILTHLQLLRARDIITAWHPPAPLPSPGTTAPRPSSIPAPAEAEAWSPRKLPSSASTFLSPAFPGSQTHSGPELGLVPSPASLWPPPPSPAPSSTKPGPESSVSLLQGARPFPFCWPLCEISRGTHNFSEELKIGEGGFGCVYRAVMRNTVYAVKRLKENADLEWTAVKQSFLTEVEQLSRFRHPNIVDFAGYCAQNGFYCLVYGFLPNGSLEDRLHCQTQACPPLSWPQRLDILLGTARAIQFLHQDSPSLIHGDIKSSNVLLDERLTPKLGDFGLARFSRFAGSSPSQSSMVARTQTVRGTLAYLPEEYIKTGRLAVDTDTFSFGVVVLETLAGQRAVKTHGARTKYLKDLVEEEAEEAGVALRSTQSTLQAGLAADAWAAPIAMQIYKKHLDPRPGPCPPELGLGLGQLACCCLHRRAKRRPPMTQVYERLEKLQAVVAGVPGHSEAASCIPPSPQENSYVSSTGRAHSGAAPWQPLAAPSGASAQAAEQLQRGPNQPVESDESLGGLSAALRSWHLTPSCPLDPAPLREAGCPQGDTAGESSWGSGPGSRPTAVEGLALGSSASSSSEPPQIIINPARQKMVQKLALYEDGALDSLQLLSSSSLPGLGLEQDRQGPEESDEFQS
Sequence of Ribosomal protein S6 kinase alpha-6 (Q9UK32 whole entry): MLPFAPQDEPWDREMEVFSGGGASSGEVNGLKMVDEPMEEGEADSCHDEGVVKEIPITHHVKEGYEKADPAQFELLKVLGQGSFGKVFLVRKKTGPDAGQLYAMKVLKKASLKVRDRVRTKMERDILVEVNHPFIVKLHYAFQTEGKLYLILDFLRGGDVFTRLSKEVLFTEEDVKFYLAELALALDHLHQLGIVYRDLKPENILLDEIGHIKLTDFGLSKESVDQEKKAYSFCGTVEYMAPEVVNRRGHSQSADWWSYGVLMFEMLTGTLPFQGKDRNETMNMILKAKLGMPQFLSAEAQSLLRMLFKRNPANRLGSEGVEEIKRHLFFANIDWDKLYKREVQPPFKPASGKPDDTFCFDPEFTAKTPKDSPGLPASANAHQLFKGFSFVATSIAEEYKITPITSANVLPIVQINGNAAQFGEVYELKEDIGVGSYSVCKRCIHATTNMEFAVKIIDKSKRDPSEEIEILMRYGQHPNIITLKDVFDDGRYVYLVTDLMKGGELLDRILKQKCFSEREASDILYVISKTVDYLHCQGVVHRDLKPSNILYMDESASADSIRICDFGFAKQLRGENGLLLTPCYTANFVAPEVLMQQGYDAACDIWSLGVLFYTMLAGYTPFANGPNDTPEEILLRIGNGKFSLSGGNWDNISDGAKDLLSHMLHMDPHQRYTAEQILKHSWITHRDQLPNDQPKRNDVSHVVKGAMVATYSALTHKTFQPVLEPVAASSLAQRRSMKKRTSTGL
Sequence of Fibroblast growth factor receptor 3 (Homo sapiens), P22607 [G697C] (P22607 whole entry G697C): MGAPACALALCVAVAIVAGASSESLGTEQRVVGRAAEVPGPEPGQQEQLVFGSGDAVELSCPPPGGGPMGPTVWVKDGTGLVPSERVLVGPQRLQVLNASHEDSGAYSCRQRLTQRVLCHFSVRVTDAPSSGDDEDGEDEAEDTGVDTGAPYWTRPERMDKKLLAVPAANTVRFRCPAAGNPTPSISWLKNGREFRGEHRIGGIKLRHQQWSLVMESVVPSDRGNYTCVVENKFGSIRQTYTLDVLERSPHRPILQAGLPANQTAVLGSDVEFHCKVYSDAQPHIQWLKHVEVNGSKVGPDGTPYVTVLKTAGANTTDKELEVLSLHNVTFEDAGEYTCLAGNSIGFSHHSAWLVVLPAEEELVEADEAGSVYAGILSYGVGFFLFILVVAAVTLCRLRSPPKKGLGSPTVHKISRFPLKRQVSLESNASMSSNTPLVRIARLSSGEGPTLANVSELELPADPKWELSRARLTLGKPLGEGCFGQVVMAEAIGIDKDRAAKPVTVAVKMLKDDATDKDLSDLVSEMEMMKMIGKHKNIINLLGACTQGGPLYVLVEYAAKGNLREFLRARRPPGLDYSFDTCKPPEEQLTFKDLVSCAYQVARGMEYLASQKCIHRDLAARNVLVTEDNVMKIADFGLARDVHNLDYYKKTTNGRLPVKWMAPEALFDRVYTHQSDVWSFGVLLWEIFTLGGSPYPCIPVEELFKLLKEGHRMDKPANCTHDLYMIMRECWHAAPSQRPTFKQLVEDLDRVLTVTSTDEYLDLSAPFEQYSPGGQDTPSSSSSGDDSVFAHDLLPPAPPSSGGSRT
Sequence of RAC-alpha serine/threonine-protein kinase (P31749 whole entry): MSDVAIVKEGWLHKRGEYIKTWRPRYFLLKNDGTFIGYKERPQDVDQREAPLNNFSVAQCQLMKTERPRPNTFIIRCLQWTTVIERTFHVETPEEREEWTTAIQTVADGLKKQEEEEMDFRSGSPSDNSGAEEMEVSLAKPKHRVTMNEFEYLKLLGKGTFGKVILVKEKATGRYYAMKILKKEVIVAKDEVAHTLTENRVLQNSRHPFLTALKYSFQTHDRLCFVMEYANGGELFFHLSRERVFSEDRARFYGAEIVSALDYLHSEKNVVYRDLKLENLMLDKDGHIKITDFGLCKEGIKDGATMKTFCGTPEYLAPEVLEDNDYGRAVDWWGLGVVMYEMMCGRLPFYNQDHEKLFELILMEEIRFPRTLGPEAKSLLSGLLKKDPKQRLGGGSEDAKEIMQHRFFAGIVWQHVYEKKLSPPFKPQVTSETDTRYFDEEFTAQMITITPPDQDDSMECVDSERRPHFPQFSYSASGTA

Structure (SMILES): COc1cc(Nc2nc(C)cc(-c3cnn4nc(OC)ccc34)n2)cc(C(F)(F)F)c1
- % of control [1]: 82%

Structure (SMILES): CN(C)C/C=C/C(=O)Nc1ccc(C(=O)N2CCCC(Nc3ncc(Cl)c(-c4c[nH]c5ccccc45)n3)C2)cc1 (centres undefined)
- % of control [2]: 92%

- % of control [3]: 1.52%
Structure (SMILES): Cn1cc(-n2cnc3c(NCc4nc5cc(Cl)c(Cl)cc5[nH]4)nc(N4CCOCC4)nc32)cn1

Structure (SMILES): COCC(=O)NC/C=C/c1ccc2ncnc(Nc3ccc(Oc4ccc(C)nc4)c(C)c3)c2c1 [CP-724714]
- % of control [4]: 90%
- % of control [5]: 100%

Structure (SMILES): Nc1cnc(N2CCc3cc(S(=O)(=O)Nc4c(F)cc(Cl)cc4F)cc(N4CCCC4=O)c32)nc1 [TP-020n]
- % of control [6]: 100%

Structure (SMILES): CCC(=O)N1CCN(c2ccc(-n3c(=O)ccc4cnc5ccc(-c6cnc7ccccc7c6)cc5c43)cc2C(F)(F)F)CC1
- % of control [7]: 100%
- % of control [8]: 100%

Structure (SMILES): CNC(=O)Nc1ccc(-c2nc(N3CC4CCC(C3)O4)c3cnn(C4CCC5(CC4)OCCO5)c3n2)cc1
- % of control [9]: 5.7%
